Measured values as given in patent publication US9181193B2, “Indenoquinolone compound, preparation method and use thereof” (Second Military Medical University, PLA, priority 2010, dated 2015).
Converted amounts (≈) assume the structure as drawn.

Assays:
[1] = system: A549 (human lung cancer cells); test: MTT in vitro anti-tumor activity test, A549; format: cell-based; settings: for IC50: Homo sapiens, A549, 72 h, read-out: A549 IC50
[2] = system: Colo205 (human colon cancer cells); test: MTT in vitro anti-tumor activity test, Colo205; format: cell-based; settings: for IC50: Homo sapiens, COLO 205, 72 h, read-out: Colo205 IC50
[3] = system: MDA-MB-435 (human breast cancer cells); test: MTT in vitro anti-tumor activity test, MDA-MB-435; format: cell-based; settings: for IC50: Homo sapiens, MDA-MB-435, 72 h, read-out: MDA-MB-435 IC50
[4] = system: HepG2 (human hepatoma cells); test: MTT in vitro anti-tumor activity test, HepG2; format: cell-based; settings: for IC50: Homo sapiens, HepG2, 72 h, read-out: HepG2 IC50
[5] = system: human lung cancer cell line A549; test: Anti-tumor activity test in vivo, nude mouse model of A549; settings: nude mouse model of A549, dose of 1-200 mg/kg weight
From the text: The activities of some compounds in vivo in the nude mouse model of human lung cancer cell line A549 were detected by using literature methods (WEI Hong. Medical Experiments Zoology. 2nd edition. Chengdu: Sichuan Science and Technology Press, 2001: 595-596).

[6] = MDA-MB-435, 100 μg/mL, MTT, 72 h
[7] = A549 human lung cancer cells, MTT, 72 h
[8] = Colo205 human colon cancer cells, MTT, 72 h
[9] = MDA-MB-435 human breast cancer cells, MTT, 72 h
[10] = HepG2 human hepatoma cells, MTT, 72 h
[11] = inhibition at 100 μg/mL, MTT assay, 72 h, A549 cells
[12] = inhibition at 100 μg/mL, MTT assay, 72 h, Colo205 cells
[13] = inhibition at 100 μg/mL, MTT assay, 72 h, MDA-MB-435 cells
[14] = inhibition at 100 μg/mL, MTT assay, 72 h, HepG2 cells
[15] = MTT assay, 72 h incubation, A549 cells
[16] = MTT assay, 72 h incubation, Colo205 cells
[17] = MTT assay, 72 h incubation, MDA-MB-435 cells
[18] = MTT assay, 72 h incubation, HepG2 cells

COc1ccc2c(c1)C(=O)c1c-2c(OCCN(C)C)nc2ccccc12 [Compound 1]
A549 100 μg/mL IC % ([1]; A549, 100 μg/mL, MTT, 72 h): 100% | IC50 [1]: 0.983 µg/mL (≈ 2.82 µM) | Colo205 100 μg/mL IC % ([2]; Colo205, 100 μg/mL, MTT, 72 h): 100% | IC50 [2]: 0.621 µg/mL (≈ 1.78 µM) | IC50 [3]: 1 µg/mL (≈ 2.87 µM) | MDA-MB-435 100 μg/mL IC % [3, 6]: 95.81% | HepG2 100 μg/mL IC % ([4]; HepG2, 100 μg/mL, MTT, 72 h): 99.40% | IC50 [4]: 0.721 µg/mL (≈ 2.07 µM) | anti-tumor activity in vivo [5]: good anti-tumor activity in vivo | melting point: 116 to 118 °C

COc1ccc2c(c1)C(=O)c1c-2c(OCCCN(C)C)nc2ccccc12 [Compound 6]
A549 100 μg/mL IC % ([1]; A549, 100 μg/mL, MTT, 72 h): 100% | A549 IC50 [1, 7]: 1.14 µg/mL | Colo205 100 μg/mL IC % ([2]; Colo205, 100 μg/mL, MTT, 72 h): 100% | Colo205 IC50 [2, 8]: 0.719 µg/mL | MDA-MB-435 100 μg/mL IC % [3, 6]: 100% | MDA-MB-435 IC50 [3, 9]: 3.64 µg/mL | HepG2 100 μg/mL IC % ([4]; HepG2, 100 μg/mL, MTT, 72 h): 98.33% | HepG2 IC50 [4, 10]: 2.17 µg/mL | anti-tumor activity in vivo [5]: good anti-tumor activity in vivo

CCN(CC)CCOc1nc2ccc(OC)cc2c2c1-c1ccc(OC)cc1C2=O [Compound 14]
A549 100 μg/mL IC % ([1]; A549, 100 μg/mL, MTT, 72 h): 100% | A549 IC50 [1, 7]: 6.11 µg/mL | Colo205 100 μg/mL IC % ([2]; Colo205, 100 μg/mL, MTT, 72 h): 97.47% | Colo205 IC50 [2, 8]: 0.580 µg/mL | MDA-MB-435 100 μg/mL IC % [3, 6]: 99.95% | MDA-MB-435 IC50 [3, 9]: 1.29 µg/mL | HepG2 100 μg/mL IC % ([4]; HepG2, 100 μg/mL, MTT, 72 h): 100% | HepG2 IC50 [4, 10]: 0.552 µg/mL | anti-tumor activity in vivo [5]: good anti-tumor activity in vivo

COc1ccc2c(c1)C(=O)c1c-2c(OCCN(C)C)nc2cc(OC)c(OC)cc12 [Compound 20]
A549 100 μg/mL IC % ([1]; A549, 100 μg/mL, MTT, 72 h): 100% | A549 IC50 [1, 7]: 13.78 µg/mL | Colo205 100 μg/mL IC % ([2]; Colo205, 100 μg/mL, MTT, 72 h): 93.79% | Colo205 IC50 [2, 8]: 0.606 µg/mL | MDA-MB-435 100 μg/mL IC % [3, 6]: 99.28% | MDA-MB-435 IC50 [3, 9]: 0.99 µg/mL | HepG2 100 μg/mL IC % ([4]; HepG2, 100 μg/mL, MTT, 72 h): 99.17% | HepG2 IC50 [4, 10]: 1.28 µg/mL | anti-tumor activity in vivo [5]: good anti-tumor activity in vivo

COc1ccc2c(c1)C(=O)c1c-2c(=O)n(CCN(C)C)c2ccccc12 [Compound 31, 5-(2-dimethylaminoethyl)-9-methoxy-5H-indeno[1,2-c]quinoline-6,11-dione]
IC50 [1]: 1.72 µg/mL (≈ 4.94 µM) | A549 100 μg/mL IC % [1, 11]: 93.62% | IC50 [2]: 1.2 µg/mL (≈ 3.44 µM) | Colo205 100 μg/mL IC % [2, 12]: 88.35% | IC50 [3]: 1.83 µg/mL (≈ 5.25 µM) | MDA-MB-435 100 μg/mL IC % [3, 13]: 86.09% | IC50 [4]: 0.746 µg/mL (≈ 2.14 µM) | HepG2 100 μg/mL IC % [4, 14]: 90.60% | melting point: 198 to 200 °C

COc1ccc2c(c1)C(=O)c1c-2c(=O)n(CCCN(C)C)c2cc(OC)c(OC)cc12 [Compound 46]
A549 IC50 [1, 15]: 12.52 µg/mL | A549 100 μg/mL IC % [1, 11]: 68.78% | Colo205 IC50 [2, 16]: 22.18 µg/mL | Colo205 100 μg/mL IC % [2, 12]: 87.44% | MDA-MB-435 IC50 [3, 17]: 0.267 µg/mL | MDA-MB-435 100 μg/mL IC % [3, 13]: 85.86% | HepG2 IC50 [4, 18]: 12.02 µg/mL | HepG2 100 μg/mL IC % [4, 14]: 90.77% | anti-tumor activity in vivo [5]: good anti-tumor activity in vivo

COc1cc2c3c(c(=O)n(CCn4ccnc4)c2cc1OC)-c1ccc(Cl)cc1C3=O [Compound 48]
A549 IC50 [1, 15]: 23.76 µg/mL | A549 100 μg/mL IC % [1, 11]: 79.61% | Colo205 IC50 [2, 16]: 11.75 µg/mL | Colo205 100 μg/mL IC % [2, 12]: 89.59% | MDA-MB-435 IC50 [3, 17]: 12.36 µg/mL | MDA-MB-435 100 μg/mL IC % [3, 13]: 100% | HepG2 IC50 [4, 18]: 60.46 µg/mL | HepG2 100 μg/mL IC % [4, 14]: 62.67%

COc1cc2c3c(c(=O)n(CCN4CCOCC4)c2cc1OC)-c1ccc(Cl)cc1C3=O [Compound 49]
A549 IC50 [1, 15]: >100 µg/mL | A549 100 μg/mL IC % [1, 11]: 28.48% | Colo205 IC50 [2, 16]: 69.03 µg/mL | Colo205 100 μg/mL IC % [2, 12]: 50.06% | MDA-MB-435 IC50 [3, 17]: >100 µg/mL | MDA-MB-435 100 μg/mL IC % [3, 13]: 48.01% | HepG2 IC50 [4, 18]: 21.05 µg/mL | HepG2 100 μg/mL IC % [4, 14]: 59.34%

COc1cc2c3c(c(=O)n(CCCN(C)C)c2cc1OC)-c1ccc(Cl)cc1C3=O [Compound 50]
A549 IC50 [1, 15]: 3.59 µg/mL | A549 100 μg/mL IC % [1, 11]: 85.91% | Colo205 IC50 [2, 16]: 15.89 µg/mL | Colo205 100 μg/mL IC % [2, 12]: 76.93% | MDA-MB-435 IC50 [3, 17]: 1.12 µg/mL | MDA-MB-435 100 μg/mL IC % [3, 13]: 89.80% | HepG2 IC50 [4, 18]: 3.71 µg/mL | HepG2 100 μg/mL IC % [4, 14]: 36.98%

CC[C@@]1(O)C(=O)OCc2c1cc1n(c2=O)Cc2cc3cc(O)ccc3nc2-1 [HCPT, 10-hydroxycamptothecin, reference compound]
A549 100 μg/mL IC % ([1]; A549, 100 μg/mL, MTT, 72 h): 84.68% | IC50 [1]: 0.00364 µg/mL (≈ 0.00999 µM) | A549 100 μg/mL IC % [1, 11]: 84.68% | Colo205 100 μg/mL IC % ([2]; Colo205, 100 μg/mL, MTT, 72 h): 88.14% | IC50 [2]: 0.0049 µg/mL (≈ 0.0134 µM) | Colo205 100 μg/mL IC % [2, 12]: 88.14% | IC50 [3]: 0.00127 µg/mL (≈ 0.00349 µM) | MDA-MB-435 100 μg/mL IC % [3, 6]: 96.71% | MDA-MB-435 100 μg/mL IC % [3, 13]: 96.71% | HepG2 100 μg/mL IC % ([4]; HepG2, 100 μg/mL, MTT, 72 h): 100% | IC50 [4]: 0.147 µg/mL (≈ 0.403 µM) | HepG2 100 μg/mL IC % [4, 14]: 100%
